Active and inactive are the calls of the source.
Columns and labels:
Nonstructural protein 1 = Nonstructural protein 1 (Influenza A virus, UniProt Q194T2); type: functional, Influenza A virus (A/California/07/2009(H1N1))
Fatty acid synthase [1] = biological target: T1, Fatty acid synthase (Homo sapiens, UniProt P49327); assay: inhibition of human FAS-TE enzyme activity – biochemical, endpoint fluorescence intensity, uHTS hits, dose response (AID 624327); type: functional;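 note: fluorescence from hydrolysis of an O-methyl fluorescein acyl ester substrate by the enzyme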
T1 sequence (P49327 whole entry): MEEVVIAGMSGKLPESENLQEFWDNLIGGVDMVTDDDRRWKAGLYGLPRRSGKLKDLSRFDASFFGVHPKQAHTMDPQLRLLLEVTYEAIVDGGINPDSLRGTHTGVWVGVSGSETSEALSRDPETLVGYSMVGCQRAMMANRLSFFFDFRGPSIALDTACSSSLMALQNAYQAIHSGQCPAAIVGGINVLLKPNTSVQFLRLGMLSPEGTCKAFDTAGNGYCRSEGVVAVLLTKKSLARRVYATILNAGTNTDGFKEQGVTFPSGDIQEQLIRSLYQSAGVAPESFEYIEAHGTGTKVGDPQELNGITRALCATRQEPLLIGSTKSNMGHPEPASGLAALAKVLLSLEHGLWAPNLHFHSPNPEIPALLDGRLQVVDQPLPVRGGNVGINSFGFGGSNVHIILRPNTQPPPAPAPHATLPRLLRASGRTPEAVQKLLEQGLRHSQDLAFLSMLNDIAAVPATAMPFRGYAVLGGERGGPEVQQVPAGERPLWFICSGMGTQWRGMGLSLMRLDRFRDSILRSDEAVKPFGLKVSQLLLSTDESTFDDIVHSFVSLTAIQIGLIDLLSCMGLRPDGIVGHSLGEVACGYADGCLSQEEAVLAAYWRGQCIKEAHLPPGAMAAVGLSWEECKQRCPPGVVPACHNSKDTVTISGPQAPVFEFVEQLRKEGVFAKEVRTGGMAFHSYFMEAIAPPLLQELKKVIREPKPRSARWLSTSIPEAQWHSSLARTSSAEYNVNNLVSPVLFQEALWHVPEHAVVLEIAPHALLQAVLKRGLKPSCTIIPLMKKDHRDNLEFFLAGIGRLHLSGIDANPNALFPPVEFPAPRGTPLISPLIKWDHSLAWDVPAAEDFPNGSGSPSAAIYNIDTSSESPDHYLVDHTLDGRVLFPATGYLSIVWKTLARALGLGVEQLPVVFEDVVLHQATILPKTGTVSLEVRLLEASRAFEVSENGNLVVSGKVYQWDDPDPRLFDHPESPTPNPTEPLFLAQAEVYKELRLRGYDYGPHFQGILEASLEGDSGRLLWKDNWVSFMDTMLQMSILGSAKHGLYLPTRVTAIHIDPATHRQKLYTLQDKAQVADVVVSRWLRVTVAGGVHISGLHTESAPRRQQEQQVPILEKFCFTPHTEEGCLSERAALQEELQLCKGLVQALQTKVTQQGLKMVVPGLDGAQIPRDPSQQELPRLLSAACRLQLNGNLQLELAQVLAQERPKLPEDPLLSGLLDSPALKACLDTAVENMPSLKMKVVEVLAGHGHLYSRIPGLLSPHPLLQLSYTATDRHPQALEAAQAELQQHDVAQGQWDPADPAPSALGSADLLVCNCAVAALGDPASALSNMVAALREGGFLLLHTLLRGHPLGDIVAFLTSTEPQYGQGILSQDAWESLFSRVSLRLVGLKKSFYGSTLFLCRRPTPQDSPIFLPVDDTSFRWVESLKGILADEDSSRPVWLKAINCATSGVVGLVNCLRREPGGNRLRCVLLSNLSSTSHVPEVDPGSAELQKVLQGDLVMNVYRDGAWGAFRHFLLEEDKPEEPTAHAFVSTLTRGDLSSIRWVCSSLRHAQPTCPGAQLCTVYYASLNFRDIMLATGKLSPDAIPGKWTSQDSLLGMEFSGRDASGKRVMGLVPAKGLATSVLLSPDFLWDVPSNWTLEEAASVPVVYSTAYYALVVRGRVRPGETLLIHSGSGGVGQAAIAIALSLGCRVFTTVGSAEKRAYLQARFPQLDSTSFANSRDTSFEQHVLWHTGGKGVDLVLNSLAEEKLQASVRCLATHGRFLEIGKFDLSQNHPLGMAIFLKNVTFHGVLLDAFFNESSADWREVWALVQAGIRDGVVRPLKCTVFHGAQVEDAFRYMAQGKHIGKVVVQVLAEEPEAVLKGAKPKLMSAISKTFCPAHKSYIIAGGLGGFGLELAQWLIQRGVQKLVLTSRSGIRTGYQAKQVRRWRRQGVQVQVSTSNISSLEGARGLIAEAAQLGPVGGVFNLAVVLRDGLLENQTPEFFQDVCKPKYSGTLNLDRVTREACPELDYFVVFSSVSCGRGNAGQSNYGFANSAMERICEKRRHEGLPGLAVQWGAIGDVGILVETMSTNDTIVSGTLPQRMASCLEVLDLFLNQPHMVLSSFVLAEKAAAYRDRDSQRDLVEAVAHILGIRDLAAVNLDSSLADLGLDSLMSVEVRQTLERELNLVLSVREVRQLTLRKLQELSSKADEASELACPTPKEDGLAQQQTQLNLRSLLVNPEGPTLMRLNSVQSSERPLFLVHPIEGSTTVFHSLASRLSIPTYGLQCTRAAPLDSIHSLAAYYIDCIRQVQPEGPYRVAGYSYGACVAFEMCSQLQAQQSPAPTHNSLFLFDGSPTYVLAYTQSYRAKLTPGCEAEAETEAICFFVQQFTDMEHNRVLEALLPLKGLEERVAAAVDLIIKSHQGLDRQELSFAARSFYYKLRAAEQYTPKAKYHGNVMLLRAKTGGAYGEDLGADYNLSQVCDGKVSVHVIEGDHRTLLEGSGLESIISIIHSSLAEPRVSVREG

Fatty acid synthase [2] = biological target: T1, Fatty acid synthase; assay: inhibition of human FAS-TE enzyme activity – biochemical, kinetic fluorescence intensity, dose response (AID 624326); type: functional;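 note: rate of fluorescence rise from hydrolysis of a fluorogenic O-methyl fluorescein ester substrate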
[3] = biological target: FAD-linked sulfhydryl oxidase ALR (Homo sapiens, UniProt P55789); assay: ALR-catalysed DTT oxidation blockers – biochemical, H2O2 detection, luminescence, cherry-pick, dose response (AID 493248)
FAD-linked sulfhydryl oxidase ALR, sequence (P55789 whole entry): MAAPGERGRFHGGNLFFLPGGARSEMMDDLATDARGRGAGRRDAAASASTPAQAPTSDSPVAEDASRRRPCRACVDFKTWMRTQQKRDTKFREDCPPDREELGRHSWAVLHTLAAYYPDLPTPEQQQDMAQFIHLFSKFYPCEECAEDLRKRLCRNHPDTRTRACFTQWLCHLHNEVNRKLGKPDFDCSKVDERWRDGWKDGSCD

Large T antigen = Large T antigen (Simian virus 40, UniProt P03070); type: functional, Betapolyomavirus macacae;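 note: Confirmatory-stage PubChem screen for compounds that inhibit SV40 T antigen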
Large T antigen, sequence (P03070 whole entry, the tested form may be a part): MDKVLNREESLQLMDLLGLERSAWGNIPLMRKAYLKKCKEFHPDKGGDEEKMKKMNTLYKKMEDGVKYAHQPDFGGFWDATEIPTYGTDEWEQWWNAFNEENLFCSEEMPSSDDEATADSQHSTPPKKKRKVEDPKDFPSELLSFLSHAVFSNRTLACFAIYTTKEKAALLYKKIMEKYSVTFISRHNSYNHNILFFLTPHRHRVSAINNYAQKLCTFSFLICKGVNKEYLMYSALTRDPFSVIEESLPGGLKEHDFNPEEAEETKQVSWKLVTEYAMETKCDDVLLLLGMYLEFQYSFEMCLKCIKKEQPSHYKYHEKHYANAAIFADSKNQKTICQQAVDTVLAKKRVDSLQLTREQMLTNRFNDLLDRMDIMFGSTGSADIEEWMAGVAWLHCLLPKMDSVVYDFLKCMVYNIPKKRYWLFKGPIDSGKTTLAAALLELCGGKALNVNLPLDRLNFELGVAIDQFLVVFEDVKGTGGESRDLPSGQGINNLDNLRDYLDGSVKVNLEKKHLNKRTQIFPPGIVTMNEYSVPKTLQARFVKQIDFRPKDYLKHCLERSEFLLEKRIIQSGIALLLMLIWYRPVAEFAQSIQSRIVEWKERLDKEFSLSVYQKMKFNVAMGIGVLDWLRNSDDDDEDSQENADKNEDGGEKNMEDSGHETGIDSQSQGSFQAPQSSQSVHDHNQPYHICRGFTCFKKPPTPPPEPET

[4] = off-target signal loss in HeLa-CEM21 co-culture – HeLa F-luc CTL cells, cherry-picked, counter-screen for HIV-1 Env fusion inhibitor project, dose response (AID 652040); type: functional, cell-based;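 note: potency for signal decrease marking cytotoxic or nonspecific inhibition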
[5] = blockers of HIV-1 ZM109 envelope-driven cell-cell fusion – HeLa effector, CEM target cells, luciferase, cherry-pick, dose response (AID 652058); type: functional, cell-based;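 note: luciferase signal from HIV-1 Env mediated cell-cell fusion of effector and target cells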
[6] = blockers of HIV-1 envelope-mediated cell-cell fusion – cherry-pick, dose response (AID 652057); type: functional, cell-based
[7] = biological target: T2, Heat shock factor protein 1 (Mus musculus, UniProt P38532); assay: enhancement of HSF1-driven luciferase signal – cell-based, NIH3T3, luminescence, dose retest, confirmation (AID 435004); type: functional;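 note: stress induced by proteasome inhibitor MG132 added 30 min after compound; luciferase reporter driven by HSF1 response element in NIH3T3 cells; actives raise luminescence as potentiators of the MG132 stress response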
T2 sequence (P38532 whole entry): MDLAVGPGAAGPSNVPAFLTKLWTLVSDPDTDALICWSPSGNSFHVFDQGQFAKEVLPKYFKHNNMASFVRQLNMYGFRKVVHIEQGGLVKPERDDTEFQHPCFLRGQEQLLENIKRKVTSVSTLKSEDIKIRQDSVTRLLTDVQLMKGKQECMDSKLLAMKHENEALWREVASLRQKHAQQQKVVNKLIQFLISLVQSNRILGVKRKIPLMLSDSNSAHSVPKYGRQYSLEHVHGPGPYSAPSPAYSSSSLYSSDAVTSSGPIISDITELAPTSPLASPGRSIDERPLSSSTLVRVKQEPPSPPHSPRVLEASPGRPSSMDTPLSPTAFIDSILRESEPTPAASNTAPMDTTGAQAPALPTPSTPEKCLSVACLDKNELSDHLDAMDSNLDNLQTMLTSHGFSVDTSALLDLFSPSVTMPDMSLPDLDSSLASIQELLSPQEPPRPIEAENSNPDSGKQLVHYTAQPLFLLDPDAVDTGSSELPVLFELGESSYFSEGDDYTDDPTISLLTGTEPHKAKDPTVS

[8] = HIV-1 AD8 envelope cell-cell fusion blockers – cherry-pick, dose response (AID 652062); type: functional, cell-based;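 note: luciferase signal from cell-cell fusion driven by HIV-1 clade B AD8 Env; potency is for inhibitors of fusion seen as a drop in luminescence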
[9] = biological target: T3, Long-chain-fatty-acid--AMP ligase FadD28 (Mycobacterium tuberculosis, UniProt P9WQ59); assay: Fluorescence polarization aasay to screen for inhibitors that compete for the binding of FadD28 to a bisubstrate Measured in Biochemical System Using Plate Reader - 2147-01_Inhibitor_Dose_CherryPick_Activity.; type: functional, Mycobacterium tuberculosis H37Rv
T3 sequence (P9WQ59 whole entry): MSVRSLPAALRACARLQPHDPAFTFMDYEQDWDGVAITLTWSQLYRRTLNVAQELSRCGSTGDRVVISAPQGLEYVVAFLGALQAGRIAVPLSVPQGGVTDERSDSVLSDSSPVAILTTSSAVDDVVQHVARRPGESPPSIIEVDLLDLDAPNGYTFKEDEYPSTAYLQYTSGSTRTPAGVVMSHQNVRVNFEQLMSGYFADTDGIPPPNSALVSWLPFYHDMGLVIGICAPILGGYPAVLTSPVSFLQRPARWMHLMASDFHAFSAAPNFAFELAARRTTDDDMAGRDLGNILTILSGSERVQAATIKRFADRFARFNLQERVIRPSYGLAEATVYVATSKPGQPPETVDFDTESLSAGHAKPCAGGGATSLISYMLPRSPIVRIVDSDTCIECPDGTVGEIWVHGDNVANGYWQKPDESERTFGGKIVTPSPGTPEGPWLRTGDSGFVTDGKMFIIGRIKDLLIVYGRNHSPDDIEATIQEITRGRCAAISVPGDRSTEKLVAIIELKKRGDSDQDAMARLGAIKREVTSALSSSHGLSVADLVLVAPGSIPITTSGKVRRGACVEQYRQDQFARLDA

Aminopeptidase N = biological target: T4, Aminopeptidase N (Plasmodium falciparum FcB1/Columbia, UniProt O96935); assay: malaria alanyl aminopeptidase activity blockers – biochemical, fluorogenic H-Leu-NHMec substrate, 1536-well (AID 1445); design: species or system Plasmodium falciparum 3D7, 3D7
T4 sequence (O96935 whole entry): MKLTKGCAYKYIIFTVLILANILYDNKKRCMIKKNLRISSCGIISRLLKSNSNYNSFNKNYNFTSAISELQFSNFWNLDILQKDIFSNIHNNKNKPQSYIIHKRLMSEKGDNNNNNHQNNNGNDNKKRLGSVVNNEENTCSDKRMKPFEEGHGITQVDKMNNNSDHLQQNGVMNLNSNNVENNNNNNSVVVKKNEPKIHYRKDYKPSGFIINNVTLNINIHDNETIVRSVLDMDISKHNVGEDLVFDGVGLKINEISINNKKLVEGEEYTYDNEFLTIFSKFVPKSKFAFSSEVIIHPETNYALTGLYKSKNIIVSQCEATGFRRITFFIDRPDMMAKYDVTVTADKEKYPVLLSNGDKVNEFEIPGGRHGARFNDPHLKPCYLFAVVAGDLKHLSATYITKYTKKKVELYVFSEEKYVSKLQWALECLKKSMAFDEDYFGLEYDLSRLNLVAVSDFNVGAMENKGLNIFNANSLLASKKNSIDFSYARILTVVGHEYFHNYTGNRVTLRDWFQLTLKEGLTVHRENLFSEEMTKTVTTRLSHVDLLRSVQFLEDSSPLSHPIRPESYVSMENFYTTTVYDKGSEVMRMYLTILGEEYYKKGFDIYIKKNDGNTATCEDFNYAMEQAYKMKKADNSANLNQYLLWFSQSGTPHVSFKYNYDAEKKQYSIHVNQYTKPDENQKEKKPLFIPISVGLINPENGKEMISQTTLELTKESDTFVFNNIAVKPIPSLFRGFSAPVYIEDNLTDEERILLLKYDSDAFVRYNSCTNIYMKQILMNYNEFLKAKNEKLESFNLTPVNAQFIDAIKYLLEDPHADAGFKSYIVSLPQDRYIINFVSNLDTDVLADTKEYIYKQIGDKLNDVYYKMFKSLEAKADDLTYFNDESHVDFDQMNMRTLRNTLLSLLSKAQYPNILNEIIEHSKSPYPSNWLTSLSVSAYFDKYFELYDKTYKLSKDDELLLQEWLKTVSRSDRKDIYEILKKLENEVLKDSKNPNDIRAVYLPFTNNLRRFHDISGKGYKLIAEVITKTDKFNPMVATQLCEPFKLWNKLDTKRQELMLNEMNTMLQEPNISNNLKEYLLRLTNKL

P388/ADR = assay: cells; type: functional; conditions: Mus musculus
SN12K1 = assay: cells; type: functional; conditions: Homo sapiens
P388 = assay: cells; type: functional; conditions: Mus musculus
Genome polyprotein = Genome polyprotein (dengue virus type 2, UniProt P29990); assay: flavivirus cap methylation enzyme inhibition – biochemical, confirmation dose response, primary screen (AID 588689); type: functional
Genome polyprotein, sequence (P29990 2492-3391 limits assumed): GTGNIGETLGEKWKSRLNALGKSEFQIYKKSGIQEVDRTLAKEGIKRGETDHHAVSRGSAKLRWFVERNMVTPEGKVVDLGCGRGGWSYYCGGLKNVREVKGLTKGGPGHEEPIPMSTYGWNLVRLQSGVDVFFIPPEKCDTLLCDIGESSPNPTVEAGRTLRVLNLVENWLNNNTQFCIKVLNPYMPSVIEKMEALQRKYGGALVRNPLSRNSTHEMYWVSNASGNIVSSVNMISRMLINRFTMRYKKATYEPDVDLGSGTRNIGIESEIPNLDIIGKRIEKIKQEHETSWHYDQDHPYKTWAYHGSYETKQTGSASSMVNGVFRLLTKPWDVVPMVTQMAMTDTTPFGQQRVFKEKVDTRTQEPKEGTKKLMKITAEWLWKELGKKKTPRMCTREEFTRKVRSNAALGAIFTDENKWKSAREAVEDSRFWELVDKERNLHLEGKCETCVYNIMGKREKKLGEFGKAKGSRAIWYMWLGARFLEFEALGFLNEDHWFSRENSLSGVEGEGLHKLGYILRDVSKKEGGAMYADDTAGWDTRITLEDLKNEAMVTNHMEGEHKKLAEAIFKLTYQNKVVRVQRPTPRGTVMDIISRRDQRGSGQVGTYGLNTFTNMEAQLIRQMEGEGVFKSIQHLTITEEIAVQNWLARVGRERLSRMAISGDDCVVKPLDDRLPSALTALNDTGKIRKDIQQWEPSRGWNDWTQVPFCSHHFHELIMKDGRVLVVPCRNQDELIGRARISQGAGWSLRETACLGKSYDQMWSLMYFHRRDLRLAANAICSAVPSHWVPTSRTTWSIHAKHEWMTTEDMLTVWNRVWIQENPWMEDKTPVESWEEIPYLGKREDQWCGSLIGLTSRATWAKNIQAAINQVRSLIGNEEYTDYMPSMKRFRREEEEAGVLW

Nonstructural protein 1, sequence (Q194T2 whole entry): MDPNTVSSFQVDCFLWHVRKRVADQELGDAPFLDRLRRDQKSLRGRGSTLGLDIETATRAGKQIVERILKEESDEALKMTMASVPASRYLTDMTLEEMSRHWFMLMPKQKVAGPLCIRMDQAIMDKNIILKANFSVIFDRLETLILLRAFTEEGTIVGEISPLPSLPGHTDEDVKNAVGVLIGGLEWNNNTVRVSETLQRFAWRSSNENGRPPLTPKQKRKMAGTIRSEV

Compound: COc1ccc(C)cc1NC(=O)CSc1ccc(-c2ccccn2)nn1
- IC50 (Nonstructural protein 1): 9.77 µM (active)

Compound: COc1cccc(NC(=O)CN2C(=O)CSc3ccc(S(=O)(=O)N4CCCCC4)cc32)c1
- IC50 (Fatty acid synthase [1]): 8.72 µM (active)
- IC50 (Fatty acid synthase [2]): 9.58 µM (active)

Compound: Cc1ccc(CN2CCSc3ccc(C(=O)NCCCN4CCN(C)CC4)cc32)cc1
- AC50 [3]: 0.195 µM (active)

Compound: CN(C)c1ccc(NC(=O)CSc2nnc(-c3cnccn3)n2C)cc1
- IC50 (Large T antigen): 17.8 µM (active)

Compound: Sc1n[nH]c(-c2csc3c2CCCC3)n1
- AC50 [3]: 0.044 µM (active)

Compound: O=c1cccc2n1CC1CC2CN(c2nc(N3CCCCC3)nc(N3CCCCC3)n2)C1 (centres undefined)
- AC50 [4]: 3.76 µM (active)
- AC50 [5]: 1.58 µM (active)
- AC50 [6]: 1.69 µM (active)
- EC50 [7]: > 260 µM (inactive)
- AC50 [8]: 6.73 µM (active)

Compound: COC(=O)c1ccc(N2CCc3ccccc32)c([N+](=O)[O-])c1
- IC50 (Nonstructural protein 1): 24 µM (active)

Compound: Cc1ccc(C)c(S(=O)(=O)Nc2ccc(O)cc2)c1
- IC50 (Large T antigen): 11.1 µM (active)

Compound: CN(CCCNC(=O)C1CCCN(S(=O)(=O)c2c[nH]cn2)C1)c1ccccc1 (centres undefined)
- AC50 [3]: 0.085 µM (active)

Compound: Cc1nc(C)c(-c2csc(Nc3ccc(F)cc3)n2)s1
- AC50 [3]: 0.185 µM (active)

Compound: CCn1cc(CN2CCC(C(=O)Nc3ccc(Oc4cccnc4)cc3)CC2)c(C)n1
- AC50 [9]: 21.7 µM (active)

Compound: O=C(CC(NCc1ccccn1)C(=O)O)Nc1ccccc1Cl (centres undefined)
- IC50 (Nonstructural protein 1): 1.48 µM (active)

Compound: CCN(CC)c1ccc(CN(C(=O)c2cccs2)C2CCS(=O)(=O)C2)cc1 (centres undefined)
- AC50 [3]: 2.65 µM (active)

Compound: C/C(NNC(=O)c1ccccc1O)=C1/C(=O)NC(=O)N(Cc2ccccc2)C1=O
- IC50 (Aminopeptidase N): 19.2 µM (active)
- AC50 [9]: 20.4 µM (active)

Compound: CCN(c1ccc(NC(=O)CSc2ccc3c(c2)OCCO3)cc1)C(C)C
- AC50 [9]: 20.3 µM (active)

Compound: O=C1c2ccccc2C(=O)N1CCc1c[nH]c2ccc(O)cc12
- IC50 (Large T antigen): 59.7 µM (active)

Compound: Cc1ccc(S(=O)(=O)c2nnn3c2nc(NCCCN2CCCC2=O)c2ccccc23)cc1C
- IC50 (Fatty acid synthase [1]): 5.19 µM (active)
- IC50 (Fatty acid synthase [2]): 2.85 µM (active)

Compound: COc1cc(/C=C2\SC(=O)N(CC(=O)Nc3cccc(C)c3)C2=O)ccc1OC(C)C(=O)O (centres undefined)
- AC50 [9]: 0.583 µM (active)

Compound: COC(=O)NC1C(C)OC(OC2C/C=C(/C)C3C=CC4C(OC5CC(OC6CCC(OC7CC(O)C(OC8CCC(O)C(C)O8)C(C)O7)C(C)O6)C(OC(C)=O)C(C)O5)C(C)CC(C)C4C3(C)/C(O)=C3/C(=O)OC4(CC(C=O)=CC(O)C4/C=C\2C)C3=O)CC1(C)[N+](=O)[O-] (centres undefined)
- GI50 (P388/ADR): 2.64 µM (inactive)
- GI50 (SN12K1): 0.262 µM (active)
- GI50 (P388): 0.337 µM (active)

Compound: C=CCCCCn1c2ccccc2c2c(C)c3cnccc3c(C)c21
- GI50 (P388/ADR): 1.84 µM (inactive)
- GI50 (SN12K1): 5.97 µM (inactive)
- GI50 (P388): 1.93 µM (inactive)

Compound: C=CC(=O)NC(=N)NC#N
- GI50 (P388/ADR): 25.8 µM (inactive)
- GI50 (SN12K1): > 100 µM (inactive)
- GI50 (P388): 12.8 µM (inactive)

Compound: COc1cc2cc(c1Cl)N(C)C(=O)C[C@H](OC(=O)[C@H](C)N(C)C(C)=O)[C@]1(C)O[C@H]1[C@H](C)[C@@H]1C[C@@](O)(NC(=O)O1)[C@H](OC)/C=C/C=C(/C)C2
- GI50 (P388/ADR): 0.025 µM (active)
- GI50 (SN12K1): 0.0262 µM (active)
- GI50 (P388): 0.025 µM (active)

Compound: C/C=C/c1cc2c(c(=O)o1)C(=O)[C@@H](O)[C@H](C)O2
- GI50 (P388/ADR): 2.89 µM (inactive)
- GI50 (SN12K1): 17.1 µM (inactive)
- GI50 (P388): 2.77 µM (inactive)

Compound: C=CC[N+](CCO)(CCO)CCCCCCCCCCCCCCCCCC
- GI50 (P388/ADR): 5.3 µM (inactive)
- GI50 (SN12K1): 6.08 µM (inactive)
- GI50 (P388): 0.486 µM (active)

Compound: CC(=O)c1cccc2c1OC(C)C(=O)N2Cc1ccc(Cl)cc1 (centres undefined)
- IC50 (Fatty acid synthase [1]): 9.15 µM (active)
- IC50 (Fatty acid synthase [2]): 5.63 µM (active)

Compound: N#C/C(=N\Nc1ccc([N+](=O)[O-])cc1)C(N)=S
- AC50 [9]: 19.5 µM (active)

Compound: Cn1cc(/C=N/NC(=O)COc2ccccc2[N+](=O)[O-])c2ccccc21
- AC50 [9]: > 100 µM (inactive)

Compound: COC(=O)c1ccc(COc2ccccc2/C=N/Nc2cccc(C(=O)O)c2)cc1
- IC50 (Aminopeptidase N): 47 µM (active)
- IC50 (Genome polyprotein): 76.2 µM (active)

From ChEMBL document CHEMBL1201862, “PubChem BioAssay data set” (2004)
